How the values were obtained:
[1] = tested on: histamine H1-receptor; experiment: in vivo inhibition of histamine induced bronchoconstriction in anaesthetised guinea pigs; details: intravenous antagonist dose giving DR-1 = 10, histamine dose-response 5 minutes after antagonist
Description: Guinea pigs of either sex are anaesthetised by intraperitoneal injection of sodium pentobarbitone, 90 mg/kg. The trachea is cannulated. The animal is respired artificially with a fixed volume of air just adequate to inflate the lungs. The pressure needed to inflate the lungs is monitored from the respiratory system using a pressure transducer. Intravenous injection of histamine causes dose-dependent increases in the pressure to inflate the lungs reflecting the bronchoconstrictor action of histamine. Responses to histamine can be antagonised using histamine H1 -receptor antagonists.
Dose-response curves to histamine are established at 20, 40, 80, 160 and 320 nmols/kg. Antagonists are then administered by intravenous injection and 5 minutes later a new histamine dose-response curve is established increasing the doses of histamine as necessary. The effect of the antagonist can be quantified by the displacement, to the right, of the histamine dose-response curve, expressed as a dose-ratio. A series of doses of antagonists may be given to each animal allowing calculation of dose-ratios for each dose of antagonist.

[2] = target: T1, histamine H1-receptor (guinea pig ileum) (Cavia porcellus, UniProt P31389); experiment: in vitro guinea pig ileum test (histamine H1-antagonist activity); assay type: cell-based; details: isolated guinea pig ileum, magnesium free Tyrode solution, 30° C., 8 min contact, histamine as agonist; read-out: pA2 ileum (converted)
T1 construct: an isolated portion of the guinea pig ileum is secured under tension; from tissue; host or cells: isolated guinea pig ileum
T1 sequence (P31389 whole entry): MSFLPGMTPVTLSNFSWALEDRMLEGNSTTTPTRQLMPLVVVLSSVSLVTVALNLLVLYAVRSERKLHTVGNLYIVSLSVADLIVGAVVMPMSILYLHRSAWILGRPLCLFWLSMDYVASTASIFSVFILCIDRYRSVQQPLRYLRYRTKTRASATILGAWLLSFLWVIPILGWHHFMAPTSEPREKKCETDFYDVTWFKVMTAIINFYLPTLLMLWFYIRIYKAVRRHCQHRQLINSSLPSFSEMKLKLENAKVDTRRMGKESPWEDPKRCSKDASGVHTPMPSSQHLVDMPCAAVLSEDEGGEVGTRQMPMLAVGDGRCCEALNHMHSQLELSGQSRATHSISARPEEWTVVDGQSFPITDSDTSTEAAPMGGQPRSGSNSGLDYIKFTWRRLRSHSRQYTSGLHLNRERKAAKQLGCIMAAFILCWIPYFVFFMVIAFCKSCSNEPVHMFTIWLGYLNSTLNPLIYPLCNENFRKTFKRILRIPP
Description: In this test an isolated portion of the guinea pig ileum is secured under tension (500 mg) between an anchorage and a transducer in a 10 ml tissue bath and immersed in magnesium free Tyrode solution with constant aeration at a temperature of 30° C. The output from the transducer is amplified. The amplified output is in turn fed to a flat bed recorder. Measured amounts of histamine are added to the tissue bath so that the histamine concentration increases step-wise until the force of the contraction reaches a maximum. The tissue bath is washed out and filled with fresh magnesium free Tyrode solution containing compound under test. The solution is left in contact with the tissue for 8 min. and measured amounts of histamine are added again until a maximum contraction is recorded. The assay is repeated with increasing concentrations of test compound and the dose of histamine giving 50% of maximum contraction is noted. A dose ratio (DR) was calculated by comparing the concentrations of histamine required to produce 50% maximum response in the absence and in the presence of the antagonist. A plot of Log DR-1 against Log D (the concentration of compound under test) is made and the point of intersection with the Log (DR-1) ordinate is taken as the measure of the activity (pA2 value).

Row | Kb [2] [nM] | Compound | Guinea Pig bronchoconstriction DR-1 = 10 [1] [μm/kg]
1 | 9.55 | Oc1cc(Cc2cccnc2)cnc1NCCCC1CCCc2cccnc21 (stereo not shown) [2(e), 2-[3-(5,6,7,8-Tetrahydroquinol-8-yl)propylamino]-3-hydroxy-5-(pyrid-3-ylmethyl)pyridine] | 0.038
2 | 1.51 | Cc1cc(Br)cnc1CCCNc1ncc(Cc2cccnc2)cc1O [3(h), 2-[3-(5-Bromo-3-methylpyrid-2-yl)-propylamino]-3-hydroxy-5-(pyrid-3-ylmethyl)pyridine] | –
3 | 1.95 | Cc1cc(Br)cnc1CCCCNc1ncc(Cc2cccnc2)cc1O [1(h), 2-[4-(5-Bromo-3-methylpyrid-2-yl)butylamino]-3-hydroxy-5-(pyrid-3-ylmethyl)pyridine] | 0.016

Row | Compound | Kb [2] [nM] | Guinea Pig bronchoconstriction DR-1 = 10 [1] [μm/kg]
4 | Cc1cc(Br)cnc1CCCCNc1ncc(Cc2cccnc2)cc1OP(=O)(O)O [1(i), 2-[4-(5-Bromo-3-methylpyrid-2-yl)butylamino]-5-(pyrid-3-ylmethyl)pyrid-3-yloxyphosphate] | 8.13 | 0.033

— patent US4863933A, “3-hydroxypyridines” (Smith Kline & French Laboratories Limited, priority 1986, dated 1989)
